Reference: patent US5565425A, “Viral infection and proliferation inhibitors” (Snow Brand Milk Products Co., Ltd, priority 1993, dated 1996)
Bridge positions count the residues as written; N and C are the ends. Peptide text beside a SMILES is read from it.

Tests used:
[1] = test system: Human CMV (Tanaka strain); assay: Inhibitory activity against human CMV infection and proliferation in HELF cells (fluorescence staining); type: cell-based, Human cytomegalo virus; conditions: 24 hrs., concentration not given
Protocol: (Method) LF derived peptide was dissolved in 2% serum added MEM medium to give five mg/ml solution, filtered and sterilized to make a stock solution. The stock solution was diluted with 2% serum added MEM medium on use. Samples containing human embryo lung fibroblast cells (HELF cells) were suspended in 2% serum added MEM medium and incubated for 10 minutes. The cells were collected by centrifugation, washed twice with 2% serum added MEM medium and suspended in 2% serum added MEM medium. Human cytomegalo virus [Human CMV (Tanaka strain)] was added, incubated for 24 hrs., fluorescence stained with human CMV positive serum and the adsorption rate of human CMV to the cells was determined.
The results are judged from the numbers of fluorescent stained cells per one cover slip.

HIV (HTLV-IIIB) = assay: Inhibitory activity against HIV infection and proliferation in MT-4 cells (indirect fluorescence antibody method); type: cell-based, human immunodeficiency virus (HIV); conditions: three days, positive control 26.0%
Protocol: (Method) Cultured supernatant of MOLT-4/HTLV-IIIB cells, a HTLV-IIIB persistent infected strain of HIV, was used as a viral solution. The supernatant was kept at -80° C. Human T cell line MT-4 was used for the test. MT-4 was subcultured in RPMI 1640 medium containing 10% fetal calf serum (FCS). Sample, LF derived peptide, was dissolved in RPMI 1640 medium and one ml of the diluted solution at various concentrations was added to the cells. The inoculated MT-4 test sample was incubated for 60 minutes and infected with HIV at a concentration of moi […]=0.01 and one ml of the cell solution adjusted at a cell density of 3×10^5 cells/ml was added. The cells were cultured for three days : and HIV infected cells were determined with an indirect fluorescence antibody method.
HIV infected cells were determined by the indirect fluorescence antibody method using HIV infected patient serum as a primary antibody. […] HIV infected MT-4 cells cultured without addition of the sample was used as a positive control and cells without addition of viral solution was cultured to make a negative control group.

[2] = test system: influenza virus A/PR/8/34; conditions: 100 μl of one mg/ml solution in allantoic cavity three hours before virus; average of five eggs
[3] = test system: mouse cytomegalo virus (mouse CMV); assay: In vivo inhibitory activity against mouse CMV infection (survival of mice); conditions: after 10 days
Protocol: (Method) Male Balbc/AJcl mice, 4-week-old (10 in one group) were used. The sample was dissolved in phosphate buffer saline solution (PBS) and intraperitoneally administered to mice.

Compound | Inhibitory rate of human CMV infection [1] | ratio of stained (HIV infected) cells (HIV (HTLV-IIIB); sample 63 μg/ml) | ratio of stained (HIV infected) cells (HIV (HTLV-IIIB); sample 125 μg/ml) | ratio of stained (HIV infected) cells (HIV (HTLV-IIIB); sample 250 μg/ml) | ratio of stained (HIV infected) cells (HIV (HTLV-IIIB); sample 500 μg/ml) | ratio of stained (HIV infected) cells (HIV (HTLV-IIIB); sample 1,000 μg/ml) | Inhibitory rate of infection and proliferation of influenza virus [2] | Survival rate ([3]; 0.02 g/kg of body weight i.p. 24 hrs. before mouse CMV) | Survival rate ([3]; 0.05 g/kg of body weight i.p. 24 hrs. before mouse CMV) | Survival rate ([3]; 0.10 g/kg of body weight i.p. 24 hrs. before mouse CMV) | Survival rate ([3]; 0.50 g/kg of body weight i.p. 24 hrs. before mouse CMV)
CC[C@H](C)[C@@H]1NC(=O)[C@H](CO)NC(=O)[C@@H]2CCCN2C(=O)[C@H](C)NC(=O)CNC(=O)[C@H](CC(C)C)NC(=O)[C@H](CCCCN)NC(=O)[C@H](CCCCN)NC(=O)[C@H](CCSC)NC(=O)[C@H](CCCNC(=N)N)NC(=O)[C@H](Cc2c[nH]c3ccccc23)NC(=O)[C@H](CCC(N)=O)NC(=O)[C@H](Cc2c[nH]c3ccccc23)NC(=O)[C@H](CCCNC(=N)N)NC(=O)[C@H](CCCNC(=N)N)NC(=O)[C@@H](NC(C)=O)CSSC[C@@H](C(N)=O)NC(=O)[C@H]([C@@H](C)O)NC1=O [Ac-bovine LF (19-36)-NH2, N-acetyl-bovine LF (19-36)-amide] (Ac-CRRWQWRMKKLGAPSITC-NH2; disulfide 1-18) | 96.5% | 17% | 8.8% | 6.1% | 5.0% | 3.6% | 87.5% | – | – | – | –
CSCC[C@@H]1NC(=O)[C@H](CC(N)=O)NC(=O)[C@H](CCCNC(=N)N)NC(=O)[C@H](CCC(N)=O)NC(=O)[C@H](Cc2c[nH]c3ccccc23)NC(=O)[C@H](CCC(N)=O)NC(=O)[C@H](Cc2ccccc2)NC(=O)[C@@H](NC(C)=O)CSSC[C@@H](C(N)=O)NC(=O)[C@H](CO)NC(=O)[C@H](C(C)C)NC(=O)[C@@H]2CCCN2C(=O)[C@@H]2CCCN2C(=O)CNC(=O)[C@H](CCCNC(=N)N)NC(=O)[C@H](C(C)C)NC(=O)[C@H](CCCCN)NC(=O)[C@H](CCCNC(=N)N)NC1=O [Ac-human LF (20-37)-NH2, N-acetyl-human LF (20-37)-amide] (Ac-CFQWQRNMRKVRGPPVSC-NH2; disulfide 1-18) | 96.1% | 18% | 9.8% | 7.7% | 4.5% | 3.9% | 93.7% | – | – | – | –
CC[C@H](C)[C@@H]1NC(=O)[C@H](CO)NC(=O)[C@@H]2CCCN2C(=O)[C@H](C)NC(=O)CNC(=O)[C@H](CC(C)C)NC(=O)[C@H](CCCCN)NC(=O)[C@H](CCCCN)NC(=O)[C@H](CCSC)NC(=O)[C@H](CCCNC(=N)N)NC(=O)[C@H](Cc2c[nH]c3ccccc23)NC(=O)[C@H](CCC(N)=O)NC(=O)[C@H](Cc2c[nH]c3ccccc23)NC(=O)[C@H](CCCNC(=N)N)NC(=O)[C@H](CCCNC(=N)N)NC(=O)[C@@H](NC(=O)[C@H](CCCCN)NC(=O)[C@@H](N)Cc2ccccc2)CSSC[C@@H](C(=O)N[C@H](C(=O)N[C@@H](CCCNC(=N)N)C(=O)N[C@@H](CCCNC(=N)N)C(=O)N[C@@H](C)C(=O)N[C@@H](Cc2ccccc2)C(=O)O)C(C)C)NC(=O)[C@H]([C@@H](C)O)NC1=O [Bovine LF (17-41)] | 95.7% | 17% | 7.9% | 5.9% | 2.7% | 1.0% | 93.7% | 30% | 60% | 100% | 100%
CC[C@H](C)[C@H](NC(=O)[C@H](CO)NC(=O)[C@@H]1CCCN1C(=O)[C@H](C)NC(=O)CNC(=O)[C@H](CC(C)C)NC(=O)[C@H](CCCCN)NC(=O)[C@H](CCCCN)NC(=O)[C@H](CCSC)NC(=O)[C@H](CCCNC(=N)N)NC(=O)[C@H](Cc1c[nH]c2ccccc12)NC(=O)[C@H](CCC(N)=O)NC(=O)[C@H](Cc1c[nH]c2ccccc12)NC(=O)[C@H](CCCNC(=N)N)NC(=O)[C@H](CCCNC(=N)N)NC(=O)[C@H](CS)NC(=O)[C@H](CCCCN)NC(=O)[C@@H](N)Cc1ccccc1)C(=O)N[C@H](C(=O)N[C@@H](CS)C(=O)N[C@H](C(=O)N[C@@H](CCCNC(=N)N)C(=O)N[C@@H](CCCNC(=N)N)C(=O)N[C@@H](C)C(=O)N[C@@H](Cc1ccccc1)C(=O)O)C(C)C)[C@@H](C)O [[19 CysSH, 36 CysSH] Bovine LF (17-41)] | 100.0% | 19% | 8.3% | 6.4% | 2.9% | 1.2% | 92.0% | – | – | – | –
CC[C@H](C)[C@H](NC(=O)[C@H](CS)NC(=O)[C@H](CO)NC(=O)[C@@H](NC(=O)[C@@H]1CCCN1C(=O)[C@@H]1CCCN1C(=O)CNC(=O)[C@H](CCCNC(=N)N)NC(=O)[C@@H](NC(=O)[C@H](CCCCN)NC(=O)[C@H](CCCNC(=N)N)NC(=O)[C@H](CCSC)NC(=O)[C@H](CC(N)=O)NC(=O)[C@H](CCCNC(=N)N)NC(=O)[C@H](CCC(N)=O)NC(=O)[C@H](Cc1c[nH]c2ccccc12)NC(=O)[C@H](CCC(N)=O)NC(=O)[C@H](Cc1ccccc1)NC(=O)[C@H](CS)NC(=O)[C@H](CCCCN)NC(=O)[C@@H](N)[C@@H](C)O)C(C)C)C(C)C)C(=O)N[C@@H](CCCCN)C(=O)N[C@@H](CCCNC(=N)N)C(=O)N[C@@H](CC(=O)O)C(=O)N[C@@H](CO)C(=O)O [[20CysSH, 37CysSH] Human LF (18-42)] (H-TKCFQWQRNMRKVRGPPVSCIKRDS-OH) | 100.0% | 17% | 8.5% | 6.2% | 3.1% | 1.4% | 96.0% | – | – | – | –
Bovine LF: bovine lactoferrin, an iron-binding protein secreted in milk (CRRWQWRMKKLGAPSITC) | 95.7% | 18% | 8.0% | 6.2% | 4.8% | 3.6% | 87.5% | – | – | – | –
